Series [1] addresses T1, 3H-CCK-8-(SO3H) binding, bovine striatum homogenate (Bos taurus, UniProt P79266).
T1 construct: tissue homogenate (striatum 0.26 mg protein in 2 ml final volume; pancreas 0.165 mg protein in 1 ml final volume); from tissue; host or cells: bovine striatum membrane homogenate
T1 sequence (P79266 1-454): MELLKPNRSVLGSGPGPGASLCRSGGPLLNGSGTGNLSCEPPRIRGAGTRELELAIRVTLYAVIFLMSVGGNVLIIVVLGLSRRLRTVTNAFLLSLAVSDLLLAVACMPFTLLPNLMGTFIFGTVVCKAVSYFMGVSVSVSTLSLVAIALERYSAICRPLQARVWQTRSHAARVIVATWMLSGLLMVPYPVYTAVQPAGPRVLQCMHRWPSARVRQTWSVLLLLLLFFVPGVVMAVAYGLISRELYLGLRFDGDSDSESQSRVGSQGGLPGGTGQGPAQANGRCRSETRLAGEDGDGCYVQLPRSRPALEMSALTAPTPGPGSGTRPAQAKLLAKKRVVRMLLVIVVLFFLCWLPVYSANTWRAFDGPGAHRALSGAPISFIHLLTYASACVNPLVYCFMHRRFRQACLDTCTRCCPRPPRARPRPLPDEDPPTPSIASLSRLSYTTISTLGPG
The series can be described thus: In vitro receptor binding assay, bovine striatum. Particulars: 0.15 nM 3H-CCK-8-(SO3H), 30 min, 25° C.; read-out: Bovine Striatum IC50 (inhibition of specific 3H-CCK-8-(SO3H) binding). As to the method: (§1) The tissue was homogenized 2× for approx. 15 sec. at 0° C. using a Polytron homogenizer at a setting of 6. The tissue was isolated by centrifugation at 48,000×g for 10 min. at 0° C. […] Samples were incubated for 30 min. at 25° C. and the incubation terminated by pouring the mixture onto a pre-wet Whatman GF/B filter on a Sandbeck Vacuum Filtration Manifold. The incubation tubes were washed with 2×3 ml of ice-cold HEPES Buffer #2 and the wash filtered through the GF/B filter. The filter was air dried for 10 min. and then placed in a scintillation vial with 12 ml of Beckman HP/b Ready-Solv scintillation cocktail. The vials were shaken for 2-12 hours and then counted using a Beckman Model 7800 liquid scintillation spectrometer.

Series [2] concerns the target T2, 3H-CCK-8-(SO3H) binding, rat pancreas homogenate (Rattus norvegicus, UniProt P30551).
T2 construct: tissue homogenate (striatum 0.26 mg protein in 2 ml final volume; pancreas 0.165 mg protein in 1 ml final volume); from tissue; host or cells: rat pancreas membrane homogenate
T2 sequence (P30551 1-444): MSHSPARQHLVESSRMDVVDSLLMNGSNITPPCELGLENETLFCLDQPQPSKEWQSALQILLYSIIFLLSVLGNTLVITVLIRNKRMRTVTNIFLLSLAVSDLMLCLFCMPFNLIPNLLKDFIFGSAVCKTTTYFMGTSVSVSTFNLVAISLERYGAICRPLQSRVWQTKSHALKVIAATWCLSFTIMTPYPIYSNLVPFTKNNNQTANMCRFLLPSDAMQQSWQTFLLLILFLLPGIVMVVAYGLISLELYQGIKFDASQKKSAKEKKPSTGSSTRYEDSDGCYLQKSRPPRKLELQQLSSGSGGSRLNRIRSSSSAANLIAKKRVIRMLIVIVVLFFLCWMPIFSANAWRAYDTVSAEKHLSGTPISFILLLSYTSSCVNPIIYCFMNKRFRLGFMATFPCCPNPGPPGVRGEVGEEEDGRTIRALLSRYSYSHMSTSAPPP
The series can be described thus: In vitro receptor binding assay, rat pancreas. Particulars: 0.15 nM 3H-CCK-8-(SO3H), 30 min, 25° C.; read-out: Rat Pancreas IC50 (inhibition of specific 3H-CCK-8-(SO3H) binding). As to the method: as §1

The next series can be described thus: in vitro. Particulars: human, real gastrointestinal fluid or homogenate.
Series [3] relates to food intake of meal-trained male Sprague-Dawley (CD) rats. The series can be described thus: Two-meal feeding assay. The series is classed as in vivo, rat. As to conditions: dose 32 microgm/kg i.p. 15 min before first meal; mean ± SEM. Here is the method:
Male Sprague-Dawley (CD) rats weighing 180-200 grams (Charles River Breeding Laboratories) were acclimated to a 12 h light/dark cycle (6 a.m. to 6 p.m.) in a room kept at 22° C. They were subsequently fasted for two days, weighed, placed in individual cages, and a four-day period of meal training was begun. During this time the rats were given ground laboratory chow (Purina Lab Chow) in jars for one hour from 9:00 a.m. until 10:00 a.m., the jars were removed from 10:00 a.m. to 12:00 p.m., and placed back in the cages from 12:00 until 1:00 p.m. Under this `1-2-1` meal feeding regime, most rats learn to eat approximately as much per day during the two hours they have access to food as rats which have food ad libitum over the entire 24-hour day. On the fourth day, the rats were weighed again, and any which lost more than five grams body weight were excluded from the test. The animals were then distributed into experimental (n=5 to 6) and control groups (n=6-12), but not matched for body weight.
Peptides of the invention were suspended either in saline, if soluble, or in 1% gum arabic, if insoluble, at concentrations of 32 to 320 μg/ml/kg body weight and were administered intraperitonerally 15 min before the first meal on day 5 of meal feeding. […] Food intake was expressed as a mean and standard error of the mean as a percent of control values for the various groups. […]

For series [4], the system named is food intake in lean and obese men. Particulars: infusions in lean and obese men; cited from earlier work.

The structures appear in SMILES notation. Where a SMILES comes first, the peptide text is derived from it. Some results are limits rather than exact numbers.

For the molecule `CSCC[C@@H]1NC(=O)[C@H](Cc2c[nH]c3ccccc23)NC(=O)CNC(=O)[C@@H](NC(=O)[C@H](Cc2ccc(OS(=O)(=O)O)cc2)NC(C)=O)CCCNC(=O)C[C@@H](C(=O)N(C)[C@@H](Cc2ccccc2)C(N)=O)NC1=O` (HELM PEPTIDE1{[ac].[O=C([C@H](Cc1ccc(OS(=O)(=O)O)cc1)N[*:1])[*:2]].[Orn].G.W.M.D.[meF].[am]}$PEPTIDE1,PEPTIDE1,3:R3-7:R3$$$V2.0), the values for the IC50 in series [1] and in series [2] were 52000 nM and 13000 nM, respectively.

For `CSCC[C@@H]1NC(=O)[C@H](Cc2ccc(OS(=O)(=O)O)cc2)NC(=O)CC[C@@H](C(=O)N[C@H](C(=O)N(C)[C@@H](Cc2ccccc2)C(N)=O)[C@@H](C)OS(=O)(=O)O)NC(=O)[C@H](Cc2c[nH]c3ccccc23)NC(=O)CNC1=O` [Example 3] (HELM PEPTIDE1{[O=C([C@H](Cc1ccc(OS(=O)(=O)O)cc1)N[*:1])[*:2]].M.G.W.E.[C[C@@H](OS(=O)(=O)O)[C@H](N[*:1])C(=O)[*:2]].[meF].[am]}$PEPTIDE1,PEPTIDE1,1:R1-5:R3$$$V2.0), the IC50 in series [1] and in series [2] was greater than 10000 nM in each case.

Consider `CSCC[C@@H]1NC(=O)[C@H](Cc2c[nH]c3ccccc23)NC(=O)CNC(=O)[C@@H](NC(=O)[C@H](Cc2ccc(OS(=O)(=O)O)cc2)NC(C)=O)CCCCNC(=O)C[C@@H](C(=O)N(C)[C@@H](Cc2ccccc2)C(N)=O)NC1=O` [Example 1] (HELM PEPTIDE1{[ac].[O=C([C@H](Cc1ccc(OS(=O)(=O)O)cc1)N[*:1])[*:2]].K.G.W.M.D.[meF].[am]}$PEPTIDE1,PEPTIDE1,3:R3-7:R3$$$V2.0), for which the IC50 in series [1] is 3000 nM; in series [2], 1500 nM. In the series “in vitro”, the metabolised at 1 h, 0.5 mg/mL is 1.4%.

On to `CSCC[C@@H]1NC(=O)[C@H](Cc2c[nH]c3ccccc23)NC(=O)CNC(=O)[C@@H](NC(=O)[C@H](Cc2ccc(OS(=O)(=O)O)cc2)NC(C)=O)CCCCNC(=O)C[C@@H](C(=O)N[C@@H](Cc2ccccc2)C(N)=O)NC1=O` (HELM PEPTIDE1{[ac].[O=C([C@H](Cc1ccc(OS(=O)(=O)O)cc1)N[*:1])[*:2]].K.G.W.M.D.F.[am]}$PEPTIDE1,PEPTIDE1,3:R3-7:R3$$$V2.0), for which the IC50 in series [1] was greater than 1000 nM; in series [2], 45 nM.

For `CCCC[C@@H]1NC(=O)[C@H](Cc2c[nH]c3ccccc23)NC(=O)CNC(=O)[C@@H](NC(=O)[C@H](Cc2ccc(OS(=O)(=O)O)cc2)NC(C)=O)CCCCNC(=O)C[C@@H](C(=O)N(C)[C@@H](Cc2ccccc2)C(N)=O)NC1=O` (HELM PEPTIDE1{[ac].[O=C([C@H](Cc1ccc(OS(=O)(=O)O)cc1)N[*:1])[*:2]].K.G.W.[Nle].D.[meF].[am]}$PEPTIDE1,PEPTIDE1,3:R3-7:R3$$$V2.0), the IC50 in series [1] was greater than 1000 nM; in series [2] it was 6600 nM.

As to `CSCC[C@H](NC(=O)[C@H](Cc1ccc(OS(=O)(=O)O)cc1)NC(=O)[C@@H](N)CC(=O)O)C(=O)NCC(=O)N[C@@H](Cc1c[nH]c2ccccc12)C(=O)N[C@@H](CCSC)C(=O)N[C@@H](CC(=O)O)C(=O)N[C@@H](Cc1ccccc1)C(N)=O` [CCK-8, H-Asp-Tyr-(SO3 H)-Met-Gly-Trp-Met-Asp-Phe-NH2], in series [1], the 50% inhibitory concentration (IC50) was in the range of 1 to 4.6 nM. Moreover, the IC50 in series [2] lay within 1 to 3.2 nM. In series [3], the “Food Intake 1st Meal” value is recorded as 27 ± 17 % of Control and the “Food Intake 2nd Meal” value is given as 149 ± 6 % of Control. In addition, in series [4], the “Effect of infusion on food intake” value is recorded as “decrease food intake”. Moreover, in “in vitro”, the metabolised at 0.25 h, 0.5 mg/mL is 90% and the metabolised at 1 h, 0.5 mg/mL was found to be 100%.

These data come from US4808701A, “Cyclic peptides having appetite regulating activity” (Hoffmann-La Roche Inc., priority 1987, dated 1989).
